The test system of this assay is HBV viral production from HepAD38 cells. The assay is described as follows: Activity of test compounds on viral production from HepAD38 cells (viral load by qPCR of HBV core sequence in supernatant). It counts as cell-based. Conditions: Hepatitis B virus, 120 h, 5 days incubation, HBV DNA in supernatant by qPCR, top concentration 10 μM, read-out: Viral Load EC50 Activity range. The gist of the method: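 HepAD38 cells, 50,000/well in tetracycline-free 2% FBS medium, treated 5 days at 37° C. with compound from 10 μM top concentration. HBV DNA in supernatant quantified by TaqMan qPCR of core sequence against DNA standards, relative to DMSO wells; CellTiter-Glo viability read in parallel. EC50/CC50 from four-parameter logistic fit.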
On the technique in general: Quantitative PCR measures a nucleic acid by following its amplification.

As to `CN1[C@@H](C(=O)Nc2ccc(F)c(Cl)c2)C[C@H](c2ncc(Br)s2)NS1(=O)=O` [HBV-CSU-122-Trans-ISO-I, (3R,5R)-5-(5-bromothiazol-2-yl)-N-(3-chloro-4-fluorophenyl)-2-methyl-1,2,6-thiadiazinane-3-carboxamide 1,1-dioxide], the EC50 – broadly, the concentration that produces a half-maximal response – is 1000 to 5000 nM.
The value for `CN1[C@H](C(=O)Nc2ccc(F)c(Cl)c2)C[C@H](c2ccc(-c3cncn3C)s2)NS1(=O)=O` [HBV-CSU-267-ISO-I, Cis-N-(3-Chloro-4-fluorophenyl)-2-methyl-5-(5-(1-methyl-1H-imidazol-5-yl)thiophen-2-yl)-1,2,6-thiadiazinane-3-carboxamide 1,1-dioxide] was less than 1000 nM.
With `CN(C)CCCOc1cccc(C2CC(C(=O)Nc3ccc(F)c(Cl)c3)N(C)S(=O)(=O)N2)c1` (stereo not drawn) [HBV-CSU-209, Cis-N-(3-Chloro-4-fluorophenyl)-5-(3-(3-(dimethylamino)propoxy)phenyl)-2-methyl-1,2,6-thiadiazinane-3-carboxamide 1,1-dioxide] the figure was less than 1000 nM; with `O=C(Nc1ccc(F)c(Cl)c1)[C@@H]1C[C@H](c2nccs2)NS(=O)(=O)N1CCc1c[nH]nn1` [HBV-CSU-092-ISO-I, Cis-2-(2-(1H-1,2,3-Triazol-4-yl)ethyl)-N-(3-chloro-4-fluorophenyl)-5-(thiazol-2-yl)-1,2,6-thiadiazinane-3-carboxamide 1,1-dioxide], less than 1000 nM.
For `CN1C(C(=O)Nc2cccc(C#N)c2)CC(c2cccs2)NS1(=O)=O` (racemic) [HBV-CSU-020, Cis-N-(3-cyanophenyl)-2-methyl-5-(thiophen-2-yl)-1,2,6-thiadiazinane-3-carboxamide 1,1-dioxide], the EC50 is less than 1000 nM.
For the compound `CN1C(C(=O)Nc2ccc(F)c(Cl)c2)CC(c2ccc(-c3ncnn3C)s2)NS1(=O)=O` (racemic) [HBV-CSU-323, Cis-N-(3-Chloro-4-fluorophenyl)-2-methyl-5-(5-(1-methyl-1H-1,2,4-triazol-5-yl)thiophen-2-yl)-1,2,6-thiadiazinane-3-carboxamide 1,1-dioxide], the EC50 is less than 1000 nM.
The value for `O=C(Nc1ccc(F)c(Cl)c1)[C@H]1C[C@@H](c2nccs2)NS(=O)(=O)N1CCO` [HBV-CSU-097-ISO-I, Cis-N-(3-Chloro-4-fluorophenyl)-2-(2-hydroxyethyl)-5-(thiazol-2-yl)-1,2,6-thiadiazinane-3-carboxamide 1,1-dioxide] was more than 5000 nM; that for `COCCN1[C@@H](C(=O)Nc2ccc(F)c(Cl)c2)C[C@@H](c2ccc(F)cc2)NS1(=O)=O` [HBV-CSU-210-ISO-I, Cis-N-(3-Chloro-4-fluorophenyl)-5-(4-fluorophenyl)-2-(2-methoxyethyl)-1,2,6-thiadiazinane-3-carboxamide 1,1-dioxide] was more than 5000 nM.
With `CN1C(C(=O)Nc2ccc(F)c(Cl)c2)CC(c2ncc(-c3cn[nH]c3)s2)NS1(=O)=O` (racemic) [HBV-CSU-254, Cis-5-(5-(1H-pyrazol-4-yl)thiazol-2-yl)-N-(3-chloro-4-fluorophenyl)-2-methyl-1,2,6-thiadiazinane-3-carboxamide 1,1-dioxide] the figure was less than 1000 nM.
`CN1C(C(=O)Nc2ccccc2)CC(c2cccs2)NS1(=O)=O` (stereo not drawn) [HBV-CSU-006, Cis-2-Methyl-N-phenyl-5-(thiophen-2-yl)-1,2,6-thiadiazinane-3-carboxamide 1,1-dioxide]: the EC50 was less than 1000 nM.
As to `C=CCN1[C@H](C(=O)Nc2ccc(F)c(Cl)c2)C[C@H](c2nccs2)NS1(=O)=O` [HBV-CSU-094-ISO-II, Cis-2-Allyl-N-(3-chloro-4-fluorophenyl)-5-(thiazol-2-yl)-1,2,6-thiadiazinane-3-carboxamide 1,1-dioxide], the EC50 was less than 1000 nM.
As for `CN1[C@@H](C(=O)Nc2ccc(F)c(Cl)c2)C[C@@H](c2cc(-c3cncs3)cs2)NS1(=O)=O` [HBV-CSU-286-ISO-II, Cis-N-(3-Chloro-4-fluorophenyl)-2-methyl-5-(4-(thiazol-5-yl)thiophen-2-yl)-1,2,6-thiadiazinane-3-carboxamide 1,1-dioxide], the EC50 was in the range of 1000 to 5000 nM.
For the compound `CN1C(C(=O)Nc2ccc(F)c(Cl)c2)CC(c2ccc(C(F)(F)F)cc2)NS1(=O)=O` (racemic) [HBV-CSU-217, Cis-N-(3-Chloro-4-fluorophenyl)-2-methyl-5-(4-(trifluoromethyl)phenyl)-1,2,6-thiadiazinane-3-carboxamide 1,1-dioxide], the EC50 was in the range of 1000 to 5000 nM.
With `[2H]C1C([2H])(c2ccc(-c3cn(C([2H])([2H])[2H])cn3)s2)NS(=O)(=O)N(C)C1([2H])C(=O)Nc1ccc(F)c(Cl)c1` (stereo not drawn) [HBV-CSU-376, Cis-N-(3-Chloro-4-fluorophenyl)-2-methyl-5-(5-(1-(methyl-d3)-1H-imidazol-4-yl)thiophen-2-yl)-1,2,6-thiadiazinane-3,4,5-d3-3-carboxamide 1,1-dioxide] the figure was less than 1000 nM.
With `CN1C(C(=O)Nc2ccc(F)c(Cl)c2)CC(c2ccc(-c3cnn(C(F)(F)F)c3)s2)NS1(=O)=O` (stereo not shown) [HBV-CSU-321] the figure was less than 1000 nM.
With `[2H]C([2H])([2H])N1C(C(=O)Nc2ccc(F)c(Cl)c2)CC(c2ncc(Br)s2)NS1(=O)=O` (stereo not shown) [HBV-CSU-336, 5-(5-Bromothiazol-2-yl)-N-(3-chloro-4-fluorophenyl)-2-(methyl-d3)-1,2,6-thiadiazinane-3-carboxamide 1,1-dioxide] the figure was less than 1000 nM; with `CN1C(C(=O)Nc2ccc(F)c(Cl)c2)CC(c2ncc(-c3ccc(Br)c(F)c3)s2)NS1(=O)=O` (racemic) [HBV-CSU-173, Cis-5-(5-(4-Bromo-3-fluorophenyl)thiazol-2-yl)-N-(3-chloro-4-fluorophenyl)-2-methyl-1,2,6-thiadiazinane-3-carboxamide 1,1-dioxide], less than 1000 nM; with `Cc1c(-c2csc(C3CC(C(=O)Nc4ccc(F)c(Cl)c4)N(C)S(=O)(=O)N3)c2)cnn1C` (stereo not drawn) [HBV-CSU-315, Cis-N-(3-chloro-4-fluorophenyl)-5-(4-(1,5-dimethyl-1H-pyrazol-4-yl)thiophen-2-yl)-2-methyl-1,2,6-thiadiazinane-3-carboxamide 1,1-dioxide], less than 1000 nM.
With `CN1C(C(=O)Nc2ccc(F)c(Cl)c2)CC(c2cc(-c3ccn(C)n3)cs2)NS1(=O)=O` (racemic) [HBV-CSU-288, Cis-N-(3-Chloro-4-fluorophenyl)-2-methyl-5-(4-(1-methyl-1H-pyrazol-3-yl)thiophen-2-yl)-1,2,6-thiadiazinane-3-carboxamide 1,1-dioxide], the EC50 is less than 1000 nM.
The value for `CN1[C@@H](C(=O)Nc2ccc(F)c(Cl)c2)C[C@@H](c2ccccc2)NS1(=O)=O` [HBV-CSU-113-ISO-II, Cis-N-(3-chloro-4-fluorophenyl)-2-methyl-5-phenyl-1,2,6-thiadiazinane-3-carboxamide 1,1-dioxide] was more than 5000 nM; that for `N#CCN1[C@H](C(=O)Nc2ccc(F)c(Cl)c2)C[C@H](c2nccs2)NS1(=O)=O` [HBV-CSU-093-ISO-I, Cis-N-(3-Chloro-4-fluorophenyl)-2-(cyanomethyl)-5-(thiazol-2-yl)-1,2,6-thiadiazinane-3-carboxamide 1,1-dioxide] was 1000 to 5000 nM; that for `CN1[C@@H](C(=O)Nc2ccc(F)c(Cl)c2)C[C@@H](c2ncc(-c3ccc(F)cn3)s2)NS1(=O)=O` [HBV-CSU-252-ISO-II, Cis-N-(3-Chloro-4-fluorophenyl)-5-(5-(5-fluoropyridin-2-yl)thiazol-2-yl)-2-methyl-1,2,6-thiadiazinane-3-carboxamide 1,1-dioxide] was more than 5000 nM.
For `CN1[C@H](C(=O)Nc2ccc(F)c(Cl)c2)C[C@H](c2cc(Cl)c(-c3cnn(C)c3)s2)NS1(=O)=O` [HBV-CSU-302-ISO-I, Cis-N-(3-Chloro-4-fluorophenyl)-5-(4-chloro-5-(1-methyl-1H-pyrazol-4-yl)thiophen-2-yl)-2-methyl-1,2,6-thiadiazinane-3-carboxamide 1,1-dioxide], the EC50 is less than 1000 nM.
Consider `CN1C(C(=O)Nc2ccc(F)c(Cl)c2)CC(c2ncc(-c3cccnc3)s2)NS1(=O)=O` (racemic) [HBV-CSU-175, Cis-N-(3-Chloro-4-fluorophenyl)-2-methyl-5-(5-(pyridin-3-yl)thiazol-2-yl)-1,2,6-thiadiazinane-3-carboxamide 1,1-dioxide], for which the EC50 was less than 1000 nM.
On to `[2H]C1[C@]([2H])(c2ccc(-c3cnn(C([2H])([2H])[2H])c3)s2)NS(=O)(=O)N(C([2H])([2H])[2H])[C@]1([2H])C(=O)Nc1ccc(F)c(Cl)c1` (stereo in doubt) [HBV-CSU-379-ISO-I, Cis-N-(3-Chloro-4-fluorophenyl)-2-(methyl-d3)-5-(5-(1-(methyl-d3)-1H-pyrazol-4-yl)thiophen-2-yl)-1,2,6-thiadiazinane-3,4,5-d3-3-carboxamide 1,1-dioxide], for which the EC50 is less than 1000 nM.
The value for `CCc1sc([C@@H]2C[C@H](C(=O)Nc3ccc(F)c(Cl)c3)N(C)S(=O)(=O)N2)cc1-c1cnn(C)c1` [HBV-CSU-305-ISO-II, Cis-N-(3-Chloro-4-fluorophenyl)-5-(5-ethyl-4-(1-methyl-1H-pyrazol-4-yl)thiophen-2-yl)-2-methyl-1,2,6-thiadiazinane-3-carboxamide 1,1-dioxide] was 1000 to 5000 nM.
On to `CN1C(C(=O)Nc2ccc(F)c(Cl)c2)CC(c2ccc(O)cc2)NS1(=O)=O` (stereo not drawn) [HBV-CSU-201, Cis-N-(3-Chloro-4-fluorophenyl)-5-(4-hydroxyphenyl)-2-methyl-1,2,6-thiadiazinane-3-carboxamide 1,1-dioxide], for which the EC50 was less than 1000 nM.
The value for `CN1[C@@H](C(=O)Nc2ccc(F)c(Cl)c2)C[C@@H](c2ncc(-c3ccc(Br)c(F)c3)s2)NS1(=O)=O` [HBV-CSU-173-ISO-II, Cis-5-(5-(4-Bromo-3-fluorophenyl)thiazol-2-yl)-N-(3-chloro-4-fluorophenyl)-2-methyl-1,2,6-thiadiazinane-3-carboxamide 1,1-dioxide] was more than 5000 nM.

Values taken from patent publication US11078170B2 (Assembly Biosciences, Inc., priority 2017, dated 2021).
